Test results: patent publication US10952987B2 (BIOPROJET, priority 2012, dated 2021)

Columns and labels:
[1] = adrenalin alone 30 μg/kg intramuscular, anesthetized rabbits
[2] = adrenalin alone 30 μg/kg intramuscular, anesthetized rabbits; remark: listed apart in the source
[3] = in animals as well as in humans; cited from earlier work

AUC of second plasma adrenalin peak relative to the first one [1]: about 20 times | time of first narrow peak in plasma adrenalin level [1]: a few minutes following the injection | time of second, much larger peak in plasma adrenalin level ([1]; later than first peak): 20 min
SMILES: CNC[C@H](O)c1ccc(O)c(O)c1 [adrenalin]
hypertensive episodes [2]: two hypertensive episodes occurred at the times of the plasma adrenalin peaks | delay of the bulk of the increase in plasma levels of adrenalin after injection [3]: about 20 minutes
